# Patent US20250276996A1, “CATIONICALLY-ENFRAMED HIGH DENSITY AROMATIC PEPTIDES” (Research Foundation of the City University of New York, priority 2022, published 2025)
# Entries after “also recorded” stand apart in the source; their conditions may differ. Non-standard residues stand in square brackets, D forms with d. Residues, ends and D or L forms follow the SMILES beside them. *: point of attachment. Biotin = O=C1N[C@H]2[C@H](CS[C@H]2CCCCC(=O)*)N1
# Experiments:
# retina = assay: Biotin-HDAP2 uptake and distribution in retina; type: in vivo, mice
# Experimental: Biotin-HDAP2 (40 mg/kg) was administered intraperitoneally to mice (male or female) and 60 minutes later retina was collected, fixed and sectioned. […] (FIG. 7A and FIG. 7B).
# Biotin-HDAP2 uptake in retina: Adult animals were injected with 50 mg/kg biotin-HDAP2 (IP; GenScript, Piscataway, NJ) reconstituted in saline and observed for 2 hours before sacrifice. Eyes were marked to record their orientation, and the animals were given an overdose of ketamine (300 mg/kg)/xylazine (60 mg/kg) (IP) before removing each eye from the orbit with forceps. Whole eyes were dropped into 4% paraformaldehyde that was constituted in either 0.1M Tris or phosphate buffers (pH 7.3) and after ten minutes, the cornea, lens and vitreous body were removed to ensure better penetration of the fixative into the retina. The eyecups were returned to the fixative for one hour. Retinas for wholemounts were dissected from the pigment epithelium by cutting along the or a serrata, gently teasing the retina away from the back of the eye and then freeing the retina by severing the optic nerve. Retinas for cryo-sectioning remained in the eyecup, were cryoprotected in 0.1M Tris or phosphate-buffered sucrose (10%, 20% and 30%) prior to embedding in OCT (Polyfreeze, Polysciences) and sectioned at a thickness of 14 μm at −25° C. using a cryostat (Leica CM3050S).
# Immunohistochemistry: Fixed retinas were labeled with cell markers using conventional immunohistochemical protocols to identify cells and structures associated with biotin-HDAP2, and to identify retinal ganglion cells and starburst amacrine cells to assess cell survival following optic nerve crush. Retinas and sections were blocked and permeabilized with 4% normal donkey serum in 0.1M Tris or phosphate buffers with 0.5% Triton-X for 1 hour and then incubated overnight (for sections) or for 3 days (for wholemounts) at 4° C. in selected primary antibodies, and 2% normal donkey serum in the same buffer. […]
# [1] = system: retinal ganglion cells (RGCs); assay: Optic nerve crush (ONC), retinal ganglion cell survival; type: in vivo, C57BL/6 mice; conditions: for Average density of retinal ganglion cells: 3 mg/kg IP daily 14 days
# Description: Quantification of Retinal Ganglion Cell Survival: To test whether the protective effects of biotin-HDAP2 in serum-starved cultured cells extended to neurons in vivo, the survival of RGCs following optic nerve crush (ONC) in the presence and absence of the peptide was studied. To control for density differences of RGCs across the retina, values were standardized by comparing ratios of RBPMS-labeled RGCs with the densities of starburst amacrine cells labeled by choline acetyltransferase (ChAT). Starburst amacrine cells, like other displaced amacrine cells, are unaffected by ONC in the short-term. In control tissue, displaced starburst amacrine cells accounted for about […] of cells in the ganglion cell layer and ratios of RBPMS labeled cells to ChAT neurons was about 4 to 1 in central retina and 3 to 1 at other eccentricities (FIG. 11B).
# Optic Nerve Crush Procedure: Adult mice (2-6 mo.) were anesthetized with a cocktail of ketamine (85 mg/kg) and xylazine (20 mg/kg) (IP), the corneas were numbed with a drop of 0.5% proparacaine hydrochloride ophthalmic solution (Falcon Pharmaceuticals), and the animals were positioned under a Nikon dissecting microscope, dorsolaterally either on the left or right sides. The dorsomedial conjunctiva was cut with microdissection spring scissors, the […] muscles were separated, and the eyeball was slightly retracted to expose the optic nerve. Fine, self-closing forceps (Roboz, RS-5027) were used to clamp the optic nerve 1-2 mm behind the globe, for approximately 3 seconds without applying additional tension. The eye was repositioned within the orbit, the conjunctiva reflected over the extraocular eye muscles and the incision covered with ophthalmic polymyxin B-neomycin-bacitracin ointment (3.5 mg/gm, Bausch and Lomb). The optic nerves from the contralateral eye were untouched and used as untreated controls. Following the crush procedure, mice were given a subcutaneous injection of extended-release buprenorphine (0.05 mg/kg, Ethiqua XR) for analgesia and placed on a heating pad until awake and grooming, at which point they were returned to their home cages. Half the animals were given biotin-HDAP2 immediately following the procedure and then daily thereafter (3 mg/kg, IP) for 14 days.
# Immunohistochemistry: Fixed retinas were labeled with cell markers using conventional immunohistochemical protocols to identify cells and structures associated with biotin-HDAP2, and to identify retinal ganglion cells and starburst amacrine cells to assess cell survival following optic nerve crush. Retinas and sections were blocked and permeabilized with 4% normal donkey serum in 0.1M Tris or phosphate buffers with 0.5% Triton-X for 1 hour and then incubated overnight (for sections) or for 3 days (for wholemounts) at 4° C. in selected primary antibodies, and 2% normal donkey serum in the same buffer. The tissue was rinsed 3×10 minutes with buffer and then incubated with secondary antibodies for one hour at room temperature (sections) or overnight at 4° C. for wholemounts. Antibodies and markers used were rabbit anti-RBPMS (1:200; Invitrogen, PA5-31231) to label all retinal ganglion cells; goat anti-choline acetyltransferase (ChAT 1:100; EMD Millipore, AB144P) to label starburst amacrine cells; rabbit anti-glutamine synthetase (1:200; Invitrogen, PA1-46165) to label Müller cells; and rabbit anti-cox4 (1:200; Invitrogen, PA5-29992) to identify mitochondria. Secondary antibodies were raised in donkey and conjugated with either Alexa Fluor 488, 594 or 647 (1:500, Life Sciences). To identify the distribution of cell nuclei, and to delineate retinal layers, tissue was labeled with the nuclear stain ToPro3 (1:1000; Invitrogen) for 15 minutes. After staining, sections and retinas were rinsed in buffer and coverslipped in Vectashield mounting media (Vector Labs) to prevent photobleaching. […]
smiles,measurement,setting,value
"N=C(N)NCCC[C@@H](NC(=O)[C@H](Cc1ccccc1)NC(=O)[C@H](Cc1ccccc1)NC(=O)[C@@H](CCCNC(=N)N)NC(=O)CCCC[C@@H]1SC[C@@H]2NC(=O)N[C@@H]21)C(N)=O [biotin-HDAP2, Biotin-dArg-Phe-Phe-dArg-NH2] (Biotin-[dR]FF[dR]-NH2)",distribution in retina,"retina; 3 mg/kg, IP",labeled all layers of the retina
same,distribution in retina,"retina; 40 mg/kg intraperitoneally, 60 minutes",widely distributed throughout the retina
same,penetration of the retina-blood barrier,retina; intravitreal injection and systemic administration,can penetrate the retina-blood barrier
same,protection of retinal ganglion cells following optic nerve crush,[1]; 3 mg/kg,protected retinal ganglion cells following optic nerve crush; also recorded: significantly greater survival of retinal ganglion cells
same,Average density of retinal ganglion cells,"[1]; Central, ONC",446.1 ± 42.92 cells/mm2
same,Average density of retinal ganglion cells,"[1]; Midperipheral, ONC",694.5 ± 52.61 cells/mm2
same,expression of RBPMS compared to untreated,[1]; ONC,doubled
same,ratio of RGCs to ChAT cells (to 1),"[1]; ONC, treated",0.70
same,more RBPMS labeled cells than untreated animals,"[1]; ONC, treated daily",40%
same,expression of RBPMS (mean pixel intensity),"[1]; ONC, treated, n=23",9.8±0.78 arbitrary fluorescence units
same,survival of retinal ganglion cells greater compared to untreated controls,"[1]; ONC, intraperitoneal or subcutaneous administration",50%
same,Average density of retinal ganglion cells,"[1]; Peripheral, ONC",565.4 ± 53.61 cells/mm2
same,percent increase in RBPMS labeled cells vs untreated ONC,[1]; central retina,18%
same,percent increase in RBPMS labeled cells vs untreated ONC,[1]; midperipheral retina,38%
same,percent increase in RBPMS labeled cells vs untreated ONC,[1]; periphery,50%
